The values that follow come from ChEMBL document CHEMBL1201862, “PubChem BioAssay data set” (2004).

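Where inhibition never reached the appropriate level, the endpoint shown equals the highest concentration tested. Otherwise, values were interpolated linearly from a five-concentration, 48-hour dose response in 96-well plates. The concentration for 50% growth inhibition is given as GI50.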 The source made the active and inactive calls. Cut-off read from the data, not from the text of the source: active = GI50 up to about 1.1 µM and inactive = higher. A value given as a limit tells only on which side of the number the result lay.

Test systems include MDA-N; MCF7; HL-60; A498; M14; CCRF-CEM; SR; SN12C; TK-10; 786-0; NCI/ADR-RES; Hs-578T; SF-295; K562; SK-MEL-2; SF-539; SNB-75; MDA-MB-231; A549; NCI-H522.
Common to all, as to assay: NCI tumour cell line growth inhibition, 48 h

`CC1=Nc2c(C#N)ncn2N=C(C)C1`: the GI50 is > 100 µM (inactive) with MDA-N; > 100 µM (inactive) with MCF7; > 100 µM (inactive) with HL-60; > 100 µM (inactive) with A498; > 100 µM (inactive) in the experiment with M14; 70.5 µM (inactive) with CCRF-CEM. Besides, the GI50 in the experiment with SR, in the experiment on SN12C, with TK-10, in the experiment on 786-0, in the experiment on NCI/ADR-RES and in the experiment on Hs-578T was > 100 µM (inactive) in each case. The GI50 with SF-295, in the experiment on K562, with SK-MEL-2, in the experiment with SF-539, with SNB-75 and in the experiment with MDA-MB-231 was > 100 µM (inactive) each time. Moreover, in the experiment with A549, the GI50 was > 100 µM (inactive).

For `C=CCOC(=O)N1c2ccc(O[Si](C)(C)C(C)(C)C)cc2[C@@]23O[C@@]24[C@@H]1C#C/C=C\C#C[C@]3(O)C(OC)(OC)C[C@@H]4C`, the GI50 with MDA-N was > 57.5 µM (inactive); in the experiment on MCF7 it was 10.8 µM (inactive); with A498 it was 1.31 µM (inactive); in the experiment on M14, > 65 µM (inactive); with CCRF-CEM it was > 23.7 µM (inactive); in the experiment on SR, 33.9 µM (inactive). The GI50 with SN12C is > 84.7 µM (inactive); in the experiment on TK-10, > 30.5 µM (inactive); with NCI-H522, 44.6 µM (inactive); with 786-0, 43.5 µM (inactive); in the experiment on NCI/ADR-RES it was 41.6 µM (inactive); with Hs-578T it was 37.8 µM (inactive). For the same compound, the GI50 with SF-295 is > 34.1 µM (inactive); with K562, 4.14 µM (inactive); in the experiment on SK-MEL-2, > 100 µM (inactive); in the experiment on SF-539 it was > 29.2 µM (inactive); with SNB-75, 4.82 µM (inactive); with MDA-MB-231, > 100 µM (inactive). Further, in the experiment on A549, the GI50 is 20 µM (inactive).

Regarding `N#CCc1nc(C#N)c(N)o1`, the GI50 in the experiment on MDA-N, with MCF7, with A498, in the experiment with M14, with CCRF-CEM and in the experiment with SR was > 100 µM (inactive) each time. The GI50 in the experiment on SN12C, in the experiment on TK-10, in the experiment on NCI-H522, with 786-0, in the experiment on NCI/ADR-RES and in the experiment with Hs-578T was > 100 µM (inactive) each time. In addition, the GI50 in the experiment with SF-295, in the experiment on SK-MEL-2, with SF-539, in the experiment on MDA-MB-231 and with A549 was > 100 µM (inactive) throughout.

For the compound `OCCCc1cc(O)c2c(c1)C(CO)C(c1ccc(O)c(O)c1)O2` (configuration not stated), the GI50 in the experiment with MDA-N was > 100 µM (inactive); in the experiment with MCF7, > 100 µM (inactive); in the experiment on HL-60 it was > 100 µM (inactive); in the experiment on A498, > 100 µM (inactive); in the experiment on M14 it was 76.6 µM (inactive); in the experiment with CCRF-CEM, > 100 µM (inactive). In addition, the GI50 with SR was > 100 µM (inactive); with SN12C, > 100 µM (inactive); in the experiment on TK-10 it was > 100 µM (inactive); in the experiment with NCI-H522 it was 48.8 µM (inactive); with 786-0 it was > 100 µM (inactive); in the experiment on NCI/ADR-RES, > 100 µM (inactive). For the same compound, the GI50 with Hs-578T, in the experiment on SF-295, with K562, in the experiment on SK-MEL-2, with SF-539 and in the experiment on MDA-MB-231 was > 100 µM (inactive) in each case. Also, in the experiment with A549, the GI50 was > 100 µM (inactive).

In the case of `CCOC(=O)/C=C/CCC(C)(C)COC(C)=O`, the GI50 with MDA-N, with MCF7, with HL-60, in the experiment on M14, in the experiment on CCRF-CEM and with SR was > 10 µM (inactive) in each case. In addition, the GI50 with SN12C, with TK-10, with NCI-H522, in the experiment on 786-0, in the experiment with NCI/ADR-RES and with Hs-578T was > 10 µM (inactive) each time. In addition, the GI50 in the experiment with SF-295, in the experiment on K562, in the experiment on SK-MEL-2, with SF-539, in the experiment on SNB-75 and with MDA-MB-231 was > 10 µM (inactive) throughout. Further, the GI50 in the experiment on A549 was > 10 µM (inactive).

In the case of `CCC(C)SC1SCC2C(=O)N(C)C3(CC3C)C(=O)OCC(NC(=O)c3nc4ccccc4cc3O)C(=O)NC(C)C(=O)N(C)C1C(=O)N(C)C1(CC1C)C(=O)OCC(NC(=O)c1nc3ccccc3cc1O)C(=O)NC(C)C(=O)N2C` (configuration not stated), the GI50 in the experiment with MDA-N was 4.71e-05 µM (active); in the experiment on MCF7, 1.2e-05 µM (active); in the experiment on HL-60, 9.29e-05 µM (active); in the experiment on A498, 0.000102 µM (active); in the experiment with M14, 0.000116 µM (active); in the experiment on CCRF-CEM, 8.73e-05 µM (active). Further, the GI50 with SR was 2.79e-05 µM (active); in the experiment on SN12C, 4.99e-05 µM (active); in the experiment with 786-0, 3.4e-05 µM (active); in the experiment on NCI/ADR-RES, 0.0331 µM (active); with Hs-578T it was 5.24e-05 µM (active); with SF-295, 9.91e-05 µM (active). Further, the GI50 was 2.77e-05 µM (active) in the experiment with K562; 4.37e-05 µM (active) with SK-MEL-2; 4.79e-05 µM (active) with SF-539; 2.93e-05 µM (active) in the experiment with SNB-75; 5.78e-05 µM (active) with MDA-MB-231; 0.00015 µM (active) in the experiment on A549.

On to `O=C(Nc1cccc(C(F)(F)F)c1)O/N=C(/Cl)CCl`, for which the GI50 was 71.8 µM (inactive) in the experiment with MDA-N; 21.6 µM (inactive) in the experiment with MCF7; 16.8 µM (inactive) with HL-60; > 100 µM (inactive) in the experiment on A498; > 100 µM (inactive) with M14; 30.2 µM (inactive) with CCRF-CEM. In addition, the GI50 is 22.6 µM (inactive) in the experiment on SR; 56 µM (inactive) in the experiment on SN12C; > 100 µM (inactive) with TK-10; 40.5 µM (inactive) in the experiment on 786-0; > 100 µM (inactive) with NCI/ADR-RES; > 100 µM (inactive) in the experiment on Hs-578T. Also, the GI50 is 49.5 µM (inactive) with SF-295; 29.6 µM (inactive) in the experiment with K562; 67.6 µM (inactive) with SK-MEL-2; > 100 µM (inactive) with SF-539; > 100 µM (inactive) in the experiment on SNB-75; 17.1 µM (inactive) in the experiment with MDA-MB-231. For the same compound, in the experiment with A549, the GI50 is > 100 µM (inactive).

As for `CCOC(=O)C1(N)CC1`, the GI50 in the experiment with MDA-N, with MCF7, in the experiment with HL-60, in the experiment with A498, with M14 and in the experiment on CCRF-CEM was > 100 µM (inactive) throughout. Moreover, the GI50 in the experiment on SR, with SN12C, in the experiment on TK-10, in the experiment with NCI-H522, in the experiment on 786-0 and in the experiment with NCI/ADR-RES was > 100 µM (inactive) each time. Moreover, the GI50 in the experiment with Hs-578T, in the experiment with SF-295, with K562, with SF-539, in the experiment on SNB-75 and in the experiment with MDA-MB-231 was > 100 µM (inactive) in each case. In addition, in the experiment with A549, the GI50 is > 100 µM (inactive).

With `Cc1cn(CCCCCOC(=O)NC(CCCNC(N)=O)C(=O)O)c(=O)[nH]c1=O` (configuration not stated), the GI50 with MDA-N, with MCF7, in the experiment with HL-60, in the experiment with A498, with M14 and in the experiment with CCRF-CEM was > 100 µM (inactive) in each case. Also, the GI50 with SR, in the experiment on SN12C, in the experiment on TK-10, with 786-0, with NCI/ADR-RES and in the experiment with Hs-578T was > 100 µM (inactive) each time. Also, the GI50 in the experiment with SF-295, with K562, with SK-MEL-2, with SF-539, in the experiment on SNB-75 and in the experiment with MDA-MB-231 was > 100 µM (inactive) throughout. The GI50 with A549 was > 100 µM (inactive).

Take `ClCc1nc2cc(Cl)ccc2o1`: the GI50 in the experiment with MDA-N is 5.71 µM (inactive); in the experiment on MCF7 it was 2.47 µM (inactive); with HL-60, 2.49 µM (inactive); in the experiment with M14, 4.31 µM (inactive); with CCRF-CEM, 1.96 µM (inactive); in the experiment on SR, 1.7 µM (inactive). The GI50 is 6.53 µM (inactive) in the experiment with SN12C; 2.83 µM (inactive) with TK-10; 1.6 µM (inactive) with NCI-H522; 1.67 µM (inactive) with 786-0; 20.3 µM (inactive) in the experiment with NCI/ADR-RES; 13.7 µM (inactive) in the experiment on Hs-578T. Moreover, the GI50 in the experiment on SF-295 is 20.3 µM (inactive); in the experiment with K562, 2.56 µM (inactive); in the experiment with SK-MEL-2 it was 5.78 µM (inactive); with SF-539, 5.51 µM (inactive); with SNB-75, 10.9 µM (inactive); in the experiment on MDA-MB-231, 3.16 µM (inactive). In addition, the GI50 with A549 was 17 µM (inactive).
